Target: T1, Full-length USP19 (Homo sapiens, UniProt O94966)
T1 construct: Full-length USP19 was purchased from Boston Biochem (E-576); purchased Boston Biochem E-576
T1 sequence (O94966 1-1318): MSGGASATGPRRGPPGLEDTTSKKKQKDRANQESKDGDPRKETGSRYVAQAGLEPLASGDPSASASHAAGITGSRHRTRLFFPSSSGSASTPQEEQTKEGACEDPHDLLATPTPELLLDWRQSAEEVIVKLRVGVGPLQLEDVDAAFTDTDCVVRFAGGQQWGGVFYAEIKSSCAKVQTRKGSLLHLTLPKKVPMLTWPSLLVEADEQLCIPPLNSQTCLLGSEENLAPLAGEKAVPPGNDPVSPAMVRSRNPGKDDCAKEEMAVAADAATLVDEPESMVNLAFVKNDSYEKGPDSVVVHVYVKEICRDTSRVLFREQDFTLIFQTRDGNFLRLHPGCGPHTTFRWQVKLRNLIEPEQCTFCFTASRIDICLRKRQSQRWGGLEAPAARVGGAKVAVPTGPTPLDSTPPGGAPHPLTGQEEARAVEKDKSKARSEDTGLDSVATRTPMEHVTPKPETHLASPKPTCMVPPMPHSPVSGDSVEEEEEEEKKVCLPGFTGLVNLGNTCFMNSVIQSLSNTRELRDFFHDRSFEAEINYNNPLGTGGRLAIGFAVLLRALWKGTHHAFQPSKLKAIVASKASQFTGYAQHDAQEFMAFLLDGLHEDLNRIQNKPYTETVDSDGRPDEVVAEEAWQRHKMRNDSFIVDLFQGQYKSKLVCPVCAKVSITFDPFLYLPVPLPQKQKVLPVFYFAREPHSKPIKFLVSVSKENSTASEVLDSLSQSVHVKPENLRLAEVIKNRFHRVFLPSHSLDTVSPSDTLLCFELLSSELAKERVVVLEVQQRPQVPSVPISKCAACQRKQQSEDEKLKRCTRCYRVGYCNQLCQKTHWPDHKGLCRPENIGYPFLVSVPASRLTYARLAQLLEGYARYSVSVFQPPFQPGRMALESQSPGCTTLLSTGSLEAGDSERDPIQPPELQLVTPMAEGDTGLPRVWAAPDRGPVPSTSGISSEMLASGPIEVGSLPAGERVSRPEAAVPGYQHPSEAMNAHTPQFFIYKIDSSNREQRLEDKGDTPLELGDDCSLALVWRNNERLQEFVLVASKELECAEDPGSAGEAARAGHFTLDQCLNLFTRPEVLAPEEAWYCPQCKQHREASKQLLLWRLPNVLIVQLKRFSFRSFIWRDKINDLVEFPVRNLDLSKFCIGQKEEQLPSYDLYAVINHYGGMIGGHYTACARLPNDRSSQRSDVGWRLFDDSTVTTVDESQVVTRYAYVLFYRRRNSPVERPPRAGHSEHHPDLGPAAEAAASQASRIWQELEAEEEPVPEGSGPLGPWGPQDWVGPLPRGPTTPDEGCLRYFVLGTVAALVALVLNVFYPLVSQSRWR
Assay: USP19 fluorescence polarisation (FP) homogeneous assay with Ubiquitin-Lys-TAMRA substrate
Assay type: biochemical
Settings: 2.5 nM USP19, 30 min pre-incubation, average of at least two duplicate experiments
In short: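 Full-length USP19 preincubated 30 min at RT with inhibitor (200 μM to 2 μM series, 8–18 points) before adding 500 nM Ubiquitin-Lys-TAMRA substrate.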

Row | IC50 [µM] | SMILES
1 | 5 to 50 | CN(CC1CC(F)C1)C(=O)N1CCC(O)(Cn2cnc(-c3ccccc3)cc2=O)C2(CCCC2)C1 (stereo not shown) [Example 239, N-((3-Fluorocyclobutyl)methyl)-10-hydroxy-N-methyl-10-((6-oxo-4-phenylpyrimidin-1(6H)-yl)methyl)-7-azaspiro[4.5]decane-7-carboxamide]
2 | 5 to 50 | CC1(C)CCCN1C(=O)N1CCC(O)(Cn2cnc(-c3ccccc3)cc2=O)C2(CCCC2)C1 (stereo not shown) [Example 240, 3-((7-(2,2-Dimethylpyrrolidine-1-carbonyl)-10-hydroxy-7-azaspiro[4.5]decan-10-yl)methyl)-6-phenylpyrimidin-4(3H)-one]
3 | 5 to 50 | O=C(N1CCC(C(F)F)CC1)N1CCC(O)(Cn2cnc(-c3ccccc3)cc2=O)C2(CCCC2)C1 (stereo not shown) [Example 241, 3-((7-(4-(Difluoromethyl)piperidine-1-carbonyl)-10-hydroxy-7-azaspiro[4.5]decan-10-yl)methyl)-6-phenylpyrimidin-4(3H)-one]
4 | 50 to 250 | CN(Cc1ccco1)C(=O)N1CCC(O)(Cn2cnc(-c3ccccc3)cc2=O)C2(CCCC2)C1 (stereo not shown) [Example 242, N-(Furan-2-ylmethyl)-10-hydroxy-N-methyl-10-((6-oxo-4-phenylpyrimidin-1(6H)-yl)methyl)-7-azaspiro[4.5]decane-7-carboxamide]
5 | 5 to 50 | O=C(N1CCC(O)(Cn2cnc(-c3ccccc3)cc2=O)C2(CCCC2)C1)N1CCOC2CC21 (stereo not shown) [Example 243, 3-((7-(2-Oxa-5-azabicyclo[4.1.0]heptane-5-carbonyl)-10-hydroxy-7-azaspiro[4.5]decan-10-yl)methyl)-6-phenylpyrimidin-4(3H)-one]
6 | 5 to 50 | CN(Cc1cccnc1)C(=O)N1CCC(O)(Cn2cnc(-c3ccccc3)cc2=O)C2(CCCC2)C1 (stereo not shown) [Example 244, 10-Hydroxy-N-methyl-10-((6-oxo-4-phenylpyrimidin-1(6H)-yl)methyl)-N-(pyridin-3-ylmethyl)-7-azaspiro[4.5]decane-7-carboxamide]
7 | 0.5 to 5 | O=C(N1CCC(O)(Cn2cnc(-c3ccccc3)cc2=O)C2(CCCC2)C1)N1CCCC1c1cccnc1 (stereo not shown) [Example 245, 3-((10-Hydroxy-7-(2-(pyridin-3-yl)pyrrolidine-1-carbonyl)-7-azaspiro[4.5]decan-10-yl)methyl)-6-phenylpyrimidin-4(3H)-one]
8 | 5 to 50 | O=C(N1CCC(n2cccc2)C1)N1CCC(O)(Cn2cnc(-c3ccccc3)cc2=O)C2(CCCC2)C1 (stereo not shown) [Example 246, 3-((7-(3-(1H-Pyrrol-1-yl)pyrrolidine-1-carbonyl)-10-hydroxy-7-azaspiro[4.5]decan-10-yl)methyl)-6-phenylpyrimidin-4(3H)-one]
9 | 5 to 50 | CC(C1CC1)N(C)C(=O)N1CCC(O)(Cn2cnc(-c3ccccc3)cc2=O)C2(CCCC2)C1 (stereo not shown) [Example 247, N-(1-Cyclopropylethyl)-10-hydroxy-N-methyl-10-((6-oxo-4-phenylpyrimidin-1(6H)-yl)methyl)-7-azaspiro[4.5]decane-7-carboxamide]
10 | 5 to 50 | O=C(N1CCC(O)(Cn2cnc(-c3ccccc3)cc2=O)C2(CCCC2)C1)N1CCOCC1C1CC1 (stereo not shown) [Example 248, 3-((7-(3-Cyclopropylmorpholine-4-carbonyl)-10-hydroxy-7-azaspiro[4.5]decan-10-yl)methyl)-6-phenylpyrimidin-4(3H)-one]
11 | 0.5 to 5 | O=C(N1CCC(O)(Cn2cnc(-c3ccccc3)cc2=O)C2(CCCC2)C1)N1CCCC1c1ccncc1 (stereo not shown) [Example 249, 3-((10-Hydroxy-7-(2-(pyridin-4-yl)pyrrolidine-1-carbonyl)-7-azaspiro[4.5]decan-10-yl)methyl)-6-phenylpyrimidin-4(3H)-one]
12 | 5 to 50 | O=C(N1CCCC2(CC2)C1)N1CCC(O)(Cn2cnc(-c3ccccc3)cc2=O)C2(CCCC2)C1 (stereo not shown) [Example 250, 3-((10-Hydroxy-7-(5-azaspiro[2.5]octane-5-carbonyl)-7-azaspiro[4.5]decan-10-yl)methyl)-6-phenylpyrimidin-4(3H)-one]
13 | 0.5 to 5 | CN(Cc1cccc(C#N)c1)C(=O)N1CCC(O)(Cn2cnc(-c3ccccc3)cc2=O)C2(CCCC2)C1 (stereo not shown) [Example 251, N-(3-Cyanobenzyl)-10-hydroxy-N-methyl-10-((6-oxo-4-phenylpyrimidin-1(6H)-yl)methyl)-7-azaspiro[4.5]decane-7-carboxamide]
14 | 5 to 50 | O=C(N1CC(C2CC2)C1)N1CCC(O)(Cn2cnc(-c3ccccc3)cc2=O)C2(CCCC2)C1 (stereo not shown) [Example 252, 3-((7-(3-Cyclopropylazetidine-1-carbonyl)-10-hydroxy-7-azaspiro[4.5]decan-10-yl)methyl)-6-phenylpyrimidin-4(3H)-one]
15 | 5 to 50 | O=C(N1CCOC(F)(F)C1)N1CCC(O)(Cn2cnc(-c3ccccc3)cc2=O)C2(CCCC2)C1 (stereo not shown) [Example 253, 3-((7-(2,2-Difluoromorpholine-4-carbonyl)-10-hydroxy-7-azaspiro[4.5]decan-10-yl)methyl)-6-phenylpyrimidin-4(3H)-one]
16 | < 0.5 | O=C(NCc1ccccc1F)N1CCC(O)(Cn2cnc(-c3ccccc3)cc2=O)C2(CCCC2)C1 (stereo not shown) [Example 254, N-(2-Fluorobenzyl)-10-hydroxy-10-((6-oxo-4-phenylpyrimidin-1(6H)-yl)methyl)-7-azaspiro[4.5]decane-7-carboxamide]
17 | 0.5 to 5 | CC(NC(=O)N1CCC(O)(Cn2cnc(-c3ccccc3)cc2=O)C2(CCCC2)C1)c1ccoc1 (stereo not shown) [Example 255, N-(1-(Furan-3-yl)ethyl)-10-hydroxy-10-((6-oxo-4-phenylpyrimidin-1(6H)-yl)methyl)-7-azaspiro[4.5]decane-7-carboxamide]
18 | 5 to 50 | CC1(CNC(=O)N2CCC(O)(Cn3cnc(-c4ccccc4)cc3=O)C3(CCCC3)C2)CC1 (stereo not shown) [Example 256, 10-Hydroxy-N-((1-methylcyclopropyl)methyl)-10-((6-oxo-4-phenylpyrimidin-1(6H)-yl)methyl)-7-azaspiro[4.5]decane-7-carboxamide]
19 | 5 to 50 | N#Cc1cccc(CNC(=O)N2CCC(O)(Cn3cnc(-c4ccccc4)cc3=O)C3(CCCC3)C2)c1 (stereo not shown) [Example 257, N-(3-Cyanobenzyl)-10-hydroxy-10-((6-oxo-4-phenylpyrimidin-1(6H)-yl)methyl)-7-azaspiro[4.5]decane-7-carboxamide]
20 | 5 to 50 | N#CCc1ccc(CNC(=O)N2CCC(O)(Cn3cnc(-c4ccccc4)cc3=O)C3(CCCC3)C2)cc1 (stereo not shown) [Example 258, N-(4-(Cyanomethyl)benzyl)-10-hydroxy-10-((6-oxo-4-phenylpyrimidin-1(6H)-yl)methyl)-7-azaspiro[4.5]decane-7-carboxamide]
21 | 5 to 50 | O=C(NCC1=CCCOC1)N1CCC(O)(Cn2cnc(-c3ccccc3)cc2=O)C2(CCCC2)C1 (stereo not shown) [Example 259, N-((5,6-Dihydro-2H-pyran-3-yl)methyl)-10-hydroxy-10-((6-oxo-4-phenylpyrimidin-1(6H)-yl)methyl)-7-azaspiro[4.5]decane-7-carboxamide]
22 | 5 to 50 | O=C(NCc1ccc2c(c1)COC2)N1CCC(O)(Cn2cnc(-c3ccccc3)cc2=O)C2(CCCC2)C1 (stereo not shown) [Example 260, N-((1,3-Dihydroisobenzofuran-5-yl)methyl)-10-hydroxy-10-((6-oxo-4-phenylpyrimidin-1(6H)-yl)methyl)-7-azaspiro[4.5]decane-7-carboxamide]
23 | 5 to 50 | O=C(N1CCC(O)(Cn2cnc(-c3ccccc3)cc2=O)C2(CCCC2)C1)N1CCOCC12CCCCC2 (stereo not shown) [Example 261, 3-((10-Hydroxy-7-(4-oxa-1-azaspiro[5.5]undecane-1-carbonyl)-7-azaspiro[4.5]decan-10-yl)methyl)-6-phenylpyrimidin-4(3H)-one]
24 | 5 to 50 | O=C(N1CCC(C(F)F)C1)N1CCC(O)(Cn2cnc(-c3ccccc3)cc2=O)C2(CCCC2)C1 (stereo not shown) [Example 262, 3-((7-(3-(Difluoromethyl)pyrrolidine-1-carbonyl)-10-hydroxy-7-azaspiro[4.5]decan-10-yl)methyl)-6-phenylpyrimidin-4(3H)-one]
25 | 5 to 50 | O=C(N1CCC(O)(Cn2cnc(-c3ccccc3)cc2=O)C2(CCCC2)C1)N1CCOCC1C(F)(F)F (stereo not shown) [Example 263, 3-((10-Hydroxy-7-(3-(trifluoromethyl)morpholine-4-carbonyl)-7-azaspiro[4.5]decan-10-yl)methyl)-6-phenylpyrimidin-4(3H)-one]
